Consider 22 compounds from ChEMBL document CHEMBL1201862, “PubChem BioAssay data set” (2004).

The target of assay [1] is DNA dC->dU-editing enzyme APOBEC-3A (Homo sapiens, UniProt P31941). The experiment in a line: Dose Response confirmation of small molecule APOBEC3A DNA Deaminase Inhibitors via a fluorescence-based single-stranded DNA deaminase assay. [Related pubchem assays (depositor defined):AID493011, AID493024]. The class given is functional.
The target in assay [2] is DNA dC->dU-editing enzyme APOBEC-3G (Homo sapiens, UniProt Q9HC16). The class given is functional.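 Also: Dose-response counterscreen measuring inhibition of APOBEC3G DNA deaminase activity, run while confirming APOBEC3A inhibitors.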
The target of assay [3] is T1, Tyrosine-protein phosphatase non-receptor type 7 (Homo sapiens, UniProt P35236).
T1 sequence (P35236 whole entry): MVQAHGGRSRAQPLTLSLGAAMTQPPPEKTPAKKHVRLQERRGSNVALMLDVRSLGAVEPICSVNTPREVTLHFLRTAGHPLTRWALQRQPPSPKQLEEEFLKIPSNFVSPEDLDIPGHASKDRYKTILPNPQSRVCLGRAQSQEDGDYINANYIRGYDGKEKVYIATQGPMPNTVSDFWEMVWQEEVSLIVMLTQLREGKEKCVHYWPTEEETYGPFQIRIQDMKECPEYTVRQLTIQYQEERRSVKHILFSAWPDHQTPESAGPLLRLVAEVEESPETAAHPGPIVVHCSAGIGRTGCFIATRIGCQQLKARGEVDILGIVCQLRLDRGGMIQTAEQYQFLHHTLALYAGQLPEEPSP
The experiment in a line: HePTP tyrosine phosphatase activity blockers – biochemical, absorbance, leukemia target, primary screen (AID 521). The class given is functional.

Assay [4] in a line: Trypanosoma cruzi growth suppression in host cells – NIH3T3 host cells, beta-gal luminescence, confirmation (AID 2044).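 Also: intracellular parasites grown in NIH/3T3 mouse fibroblasts as host cells; luminescent beta-galactosidase reporter signal from transgenic T. cruzi replicating inside host cells; inhibitors lower the luminescence signal.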 The class given is functional, cell-based.
A short description of assay [5]: viability of PTEN-deleted HCT116 cells – cell-based, HCT116 PTEN knockout, dose response (AID 1047).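 Also: HCT116 colon tumor cells with PTEN knocked out; cells exposed to compound for 60 hours before readout; potency for loss of cell viability measured by luminescence.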 In kind it is functional.
Assay [6] can be described thus: NIH3T3 cell viability loss – ATP luminescence, mouse fibroblasts, counter-screen, dose response (AID 2010).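 Also: cells exposed to compound for about 90 hours before reading.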 In kind it is functional, cell-based. (In general: A counterscreen serves to expose hits that act by an unwanted route or on another target.)
A short description of assay [7]: viability of HCT116 lacking mutant beta-catenin – cell-based, human colon tumor, dose response (AID 1045).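 Also: HCT116 colon tumor cells with beta catenin knocked out; cells exposed to compound for 60 hours.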 The class given is functional.
A short description of assay [8]: A cytotoxicity screen of small molecule inhibitors of the PhoP region in Salmonella typhi identified in the primary screen. [Related pubchem assays: 1850, 1864, 1985 ]. In kind it is functional.
Assay [9] deals with T2, Alkaline phosphatase, tissue-nonspecific isozyme (Homo sapiens, UniProt P05186).
T2 sequence (P05186 whole entry): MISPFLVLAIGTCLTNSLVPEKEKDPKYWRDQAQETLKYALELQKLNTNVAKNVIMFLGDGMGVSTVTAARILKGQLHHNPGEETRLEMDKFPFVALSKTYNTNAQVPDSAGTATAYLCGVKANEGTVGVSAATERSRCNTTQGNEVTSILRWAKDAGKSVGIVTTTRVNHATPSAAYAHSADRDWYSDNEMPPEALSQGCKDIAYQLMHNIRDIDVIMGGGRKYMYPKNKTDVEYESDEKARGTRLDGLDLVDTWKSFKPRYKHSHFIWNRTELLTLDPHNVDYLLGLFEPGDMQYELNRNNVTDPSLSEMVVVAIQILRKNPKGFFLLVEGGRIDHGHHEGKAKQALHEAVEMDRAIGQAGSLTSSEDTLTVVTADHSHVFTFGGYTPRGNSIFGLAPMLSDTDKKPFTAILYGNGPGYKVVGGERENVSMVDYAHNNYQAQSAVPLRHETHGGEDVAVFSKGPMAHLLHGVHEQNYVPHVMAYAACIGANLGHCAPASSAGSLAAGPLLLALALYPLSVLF
The experiment in a line: potency against alkaline phosphatase TNAP – biochemical, luminescent, dose response, SAR follow-up (AID 1056).

In assay [10] the target is Prothrombin (Homo sapiens, UniProt P00734). The experiment in a line: Thrombin 1536 HTS Dose Response Confirmation. [Related pubchem assays: 1046 (Thrombin 1536 HTS; hits were confirmed in this assay)]. The class given is functional.
Assay [11] in a line: THP-1 cell cytotoxicity, dose response, cytotoxicity control for non-replicating M. tuberculosis project (AID 489025). In kind it is functional.
The nature of assay [12]: viability of uninfected HEp-2 cells – cell-based, HTS, cytotoxicity control for RSV inhibitor project, dose response (AID 2410). In kind it is functional. As to conditions: human respiratory syncytial virus.
In assay [13] the target is G-protein coupled receptor 55 (Homo sapiens, UniProt Q9Y2T6). Nature of the assay: inhibition of LPI-stimulated GPR55 beta-arrestin translocation – imaging, U2OS, beta-arrestin-GFP, LPI agonist, primary screen (AID 2013).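 Also: antagonist potency measured as reduced agonist-driven arrestin aggregation.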 The class given is functional.
Assay [14] deals with T3, Calpain-2 catalytic subunit (Sus scrofa, UniProt P43367).
T3 sequence (P43367 whole entry): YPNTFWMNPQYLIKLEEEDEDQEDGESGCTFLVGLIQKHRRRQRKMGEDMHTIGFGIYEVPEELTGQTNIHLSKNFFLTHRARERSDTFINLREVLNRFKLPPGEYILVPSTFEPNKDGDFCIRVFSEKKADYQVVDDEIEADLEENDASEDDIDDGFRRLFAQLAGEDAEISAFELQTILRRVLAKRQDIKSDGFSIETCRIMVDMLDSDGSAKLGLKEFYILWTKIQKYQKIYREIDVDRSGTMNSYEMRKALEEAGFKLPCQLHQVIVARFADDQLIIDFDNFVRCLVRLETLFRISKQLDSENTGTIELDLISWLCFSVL
The experiment in a line: m-calpain protease blockers, concentration series – biochemical, fluorogenic peptide substrate, dose response (AID 1420). In kind it is functional.

Assay [15] has as its target Glyceraldehyde-3-phosphate dehydrogenase (Homo sapiens, UniProt P04406).
Assay [16] addresses T4, Heat shock factor protein 1 (Mus musculus, UniProt P38532).
T4 sequence (P38532 whole entry): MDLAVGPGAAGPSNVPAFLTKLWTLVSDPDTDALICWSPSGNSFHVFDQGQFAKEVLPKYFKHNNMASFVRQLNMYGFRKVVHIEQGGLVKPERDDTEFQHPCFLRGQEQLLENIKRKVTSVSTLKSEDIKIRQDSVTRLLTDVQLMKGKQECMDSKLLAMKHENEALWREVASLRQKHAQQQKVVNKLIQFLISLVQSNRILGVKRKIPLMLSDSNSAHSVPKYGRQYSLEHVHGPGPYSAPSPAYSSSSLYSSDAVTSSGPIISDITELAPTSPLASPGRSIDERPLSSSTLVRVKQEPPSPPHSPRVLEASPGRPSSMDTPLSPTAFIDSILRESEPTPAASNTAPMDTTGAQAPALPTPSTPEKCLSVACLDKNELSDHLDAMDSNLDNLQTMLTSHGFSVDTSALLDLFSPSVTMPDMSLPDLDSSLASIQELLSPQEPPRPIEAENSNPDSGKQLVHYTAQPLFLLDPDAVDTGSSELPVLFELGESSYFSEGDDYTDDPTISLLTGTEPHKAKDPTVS
The experiment in a line: enhancement of HSF1-driven luciferase signal – cell-based, NIH3T3, luminescence, dose retest, confirmation (AID 435004).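 Also: stress induced by proteasome inhibitor MG132 added 30 min after compound; luciferase reporter driven by HSF1 response element in NIH3T3 cells; actives raise luminescence as potentiators of the MG132 stress response.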 The class given is functional.

Assay [17] has as its target T5, Short transient receptor potential channel 4 (Mus musculus, UniProt Q9QUQ5).
T5 sequence (Q9QUQ5 whole entry): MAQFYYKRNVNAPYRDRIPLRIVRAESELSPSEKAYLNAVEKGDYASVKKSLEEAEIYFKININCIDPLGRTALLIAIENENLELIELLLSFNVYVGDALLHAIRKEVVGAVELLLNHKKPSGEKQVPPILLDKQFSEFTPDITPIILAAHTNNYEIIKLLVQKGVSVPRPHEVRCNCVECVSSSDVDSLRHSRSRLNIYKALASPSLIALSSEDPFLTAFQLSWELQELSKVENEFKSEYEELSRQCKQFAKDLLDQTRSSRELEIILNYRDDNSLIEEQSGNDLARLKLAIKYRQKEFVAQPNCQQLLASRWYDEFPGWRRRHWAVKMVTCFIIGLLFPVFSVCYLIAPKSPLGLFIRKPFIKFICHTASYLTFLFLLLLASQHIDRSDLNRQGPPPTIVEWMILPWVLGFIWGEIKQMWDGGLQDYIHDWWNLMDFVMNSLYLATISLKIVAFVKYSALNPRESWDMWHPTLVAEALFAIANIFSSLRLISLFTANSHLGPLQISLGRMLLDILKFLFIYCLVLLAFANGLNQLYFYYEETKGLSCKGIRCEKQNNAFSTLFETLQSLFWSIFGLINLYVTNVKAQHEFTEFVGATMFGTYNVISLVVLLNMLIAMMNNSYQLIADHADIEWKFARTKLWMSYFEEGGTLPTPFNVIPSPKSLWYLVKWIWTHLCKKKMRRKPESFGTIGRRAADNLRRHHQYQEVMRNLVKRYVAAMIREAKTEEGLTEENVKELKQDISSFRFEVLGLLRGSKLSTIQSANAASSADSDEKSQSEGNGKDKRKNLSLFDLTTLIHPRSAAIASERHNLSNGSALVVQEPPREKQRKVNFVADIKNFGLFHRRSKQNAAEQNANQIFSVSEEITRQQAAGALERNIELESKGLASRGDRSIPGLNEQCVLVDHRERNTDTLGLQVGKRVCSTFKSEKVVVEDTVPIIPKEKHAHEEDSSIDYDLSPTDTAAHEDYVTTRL
The experiment in a line: block of DAMGO-driven TRPC4 calcium entry – cell-based, HEK293 TRPC4/mu-opioid, Fluo-4 calcium, dose response (AID 434942).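 Also: potency of inhibitors blocking the TRPC4 calcium response.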 In kind it is functional.

Assay [18] concerns the target FAD-linked sulfhydryl oxidase ALR (Homo sapiens, UniProt P55789). The experiment in a line: ALR-catalysed DTT oxidation blockers – biochemical, H2O2 detection, luminescence, cherry-pick, dose response (AID 493248).

Activity calls are given as the source filed them.

Chain of DNA dC->dU-editing enzyme APOBEC-3A (P31941 whole entry): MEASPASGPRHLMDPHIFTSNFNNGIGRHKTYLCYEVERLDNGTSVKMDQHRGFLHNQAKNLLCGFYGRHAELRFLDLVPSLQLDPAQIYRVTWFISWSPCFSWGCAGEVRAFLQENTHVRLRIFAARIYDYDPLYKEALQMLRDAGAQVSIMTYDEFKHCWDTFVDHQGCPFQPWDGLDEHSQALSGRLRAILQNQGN
Chain of DNA dC->dU-editing enzyme APOBEC-3G (Q9HC16 whole entry): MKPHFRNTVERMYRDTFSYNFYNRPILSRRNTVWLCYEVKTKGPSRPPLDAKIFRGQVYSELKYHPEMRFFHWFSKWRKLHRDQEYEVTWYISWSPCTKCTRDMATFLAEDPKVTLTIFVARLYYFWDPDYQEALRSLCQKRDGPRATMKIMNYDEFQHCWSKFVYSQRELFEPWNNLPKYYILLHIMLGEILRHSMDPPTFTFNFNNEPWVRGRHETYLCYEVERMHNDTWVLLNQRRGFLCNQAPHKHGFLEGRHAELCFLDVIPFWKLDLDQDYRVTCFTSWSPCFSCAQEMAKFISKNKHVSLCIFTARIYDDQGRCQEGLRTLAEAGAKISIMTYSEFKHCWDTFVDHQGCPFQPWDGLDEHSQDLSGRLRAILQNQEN
Chain of Glyceraldehyde-3-phosphate dehydrogenase (P04406 whole entry): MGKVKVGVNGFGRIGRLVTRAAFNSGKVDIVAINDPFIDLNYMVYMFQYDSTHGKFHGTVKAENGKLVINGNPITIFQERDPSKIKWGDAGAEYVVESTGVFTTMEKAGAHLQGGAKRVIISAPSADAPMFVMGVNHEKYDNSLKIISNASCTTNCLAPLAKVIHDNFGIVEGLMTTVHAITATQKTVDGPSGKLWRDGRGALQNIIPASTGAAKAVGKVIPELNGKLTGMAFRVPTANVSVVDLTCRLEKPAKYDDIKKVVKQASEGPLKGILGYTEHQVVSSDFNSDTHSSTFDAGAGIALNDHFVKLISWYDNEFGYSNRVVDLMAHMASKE
Chain of G-protein coupled receptor 55 (Q9Y2T6 whole entry): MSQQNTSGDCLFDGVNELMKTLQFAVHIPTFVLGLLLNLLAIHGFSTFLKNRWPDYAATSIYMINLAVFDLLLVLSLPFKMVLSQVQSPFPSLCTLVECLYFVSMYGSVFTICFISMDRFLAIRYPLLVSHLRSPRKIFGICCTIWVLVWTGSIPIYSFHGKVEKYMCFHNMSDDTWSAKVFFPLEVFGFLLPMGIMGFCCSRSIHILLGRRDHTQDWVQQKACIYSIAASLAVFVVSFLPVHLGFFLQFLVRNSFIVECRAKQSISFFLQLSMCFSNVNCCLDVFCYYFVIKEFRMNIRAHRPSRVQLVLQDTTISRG
Chain of FAD-linked sulfhydryl oxidase ALR (P55789 whole entry): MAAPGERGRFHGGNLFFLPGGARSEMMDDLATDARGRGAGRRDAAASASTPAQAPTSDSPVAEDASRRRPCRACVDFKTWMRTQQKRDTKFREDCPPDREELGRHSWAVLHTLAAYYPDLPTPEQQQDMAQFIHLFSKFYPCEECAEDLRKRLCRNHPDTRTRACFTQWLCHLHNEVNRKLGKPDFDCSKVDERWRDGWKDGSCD

The IC50 is the concentration at which inhibition is half-maximal. With `Nc1nc2c(s1)CCCCCCCCCC2`, the results for the IC50 in assay [1] and in assay [2] were 7.08 µM (active) and 4.49 µM (active), respectively. As to `CCOc1ccccc1-n1c(SCC(=O)NC(C)(C)C)nnc1-c1ccoc1C`, in assay [3], the half-inhibitory concentration (IC50) was > 100 µM (not active). By EC50 is commonly meant the concentration needed to bring the measured effect to its halfway point. As for `COc1cc(CNC2CCCC2)cc(Cl)c1OCc1ccccc1F`, the EC50 in assay [4] is 2.01 µM (active); in assay [5], 19.9 µM (active); in assay [6] it was > 60 µM (not active); in assay [7], 19.1 µM (active).

On to `C1=C(CCNCc2ccccc2)CCCC1`, for which the EC50 in assay [8] was > 50 µM (active). On to `CCOc1cc(S(=O)(=O)Nc2cccnc2)c(OCC)cc1C`, for which the IC50 in [9] is 2.61 µM (active). On to `CCN1C(NCCc2c[nH]c3ccccc23)=N[C@@H](c2ccccc2)[C@H](C(=O)OC)[C@H]1C`, for which the IC50 in assay [1] is 6.29 µM (active); in assay [2], 8.65 µM (active). Turning to `C=CCN1C(=O)C(C(C)CC)NC1=S` (stereo not drawn), the concentration for half-maximal inhibition (IC50) in assay [10] is reported as > 50 µM (not active). As to `c1ccc(-c2nn[nH]c2-c2ccccc2)cc1`, in assay [3], the IC50 is given as > 100 µM (not active). What is called CC50 is the concentration at which the toxic effect on the cells reaches its halfway point. For the compound `CC1=NN(C(=O)c2ccc(Cn3nc(C)c(Br)c3C)cc2)C(O)(C(F)(F)F)C1` (stereo not drawn), the CC50 in assay [11] is 34 µM (active).

Consider `COc1ccc(-c2nnc(SCC(=O)Nc3sc4c(c3C#N)CCCC4)n2-c2ccccc2)cc1`, for which the cytotoxic concentration (CC50) in [12] is 9.89 µM (active). Besides, the results for the EC50 in assay [5] and in [7] were 5.14 µM (active) and 5.75 µM (active), respectively.

With `COc1ccc(NC(=O)CN2CCN(c3ccccc3F)CC2)cc1`, in [3], the half-maximal inhibitory concentration (IC50) is reported as > 100 µM (not active).

`C=C(C)CN(CC)C(=O)CC1C(=O)NCCN1CC(C)(C)C` (stereo not drawn): the IC50 in assay [10] is given as > 50 µM (not active).

For the compound `S=c1[nH]nc(CSCc2ccccc2Cl)n1C1CCCCC1`, the values for the IC50 in assay [13] and in assay [14] were 3.7 µM (active) and 11.1 µM (not active), respectively. In the case of `COCCN(CCOC)S(=O)(=O)c1ccc(C(=O)Nc2nc3c(s2)CCc2ccccc2-3)cc1`, the figures for the concentration for a half-maximal effect (EC50) in assay [5] and in assay [7] were 8.49 µM (active) and 13.1 µM (active), respectively. Consider `O=S(=O)(Nc1ccccc1I)c1cnc2ccccc2c1`, for which the values for the 50% inhibitory concentration (IC50) in assay [15] and in assay [9] were > 10 µM (inconclusive) and > 10 µM (inactive), respectively. On to `O=C1CCC(C(=O)Nc2cccc3ccccc23)N1` (stereo not drawn), for which the IC50 in assay [10] was > 50 µM (not active). Turning to `CC(C)[N+](C)(C)CC(O)CN(c1ccccc1)c1ccccc1` (stereo not drawn), the IC50 in assay [1] was 3.2 µM (active); in [2], 2.65 µM (active). `O=C(CC1(O)C(=O)Nc2ccc(Br)cc21)c1ccc2c(c1)OCO2` (stereo not drawn): the EC50 in assay [8] is > 50 µM (active); in assay [16], > 260 µM (inactive). The IC50 in assay [10] was 2.3 µM (active). For orientation: AC50 means the midpoint of the concentration-response curve, whichever way the signal moves. Take `C=C(c1ccc(O)cc1)c1ccc(O)cc1`: the IC50 in assay [13] is 1.75 µM (active). In addition, the EC50 in assay [17] was 3.76 µM (active). For the same compound, the AC50 in [18] was 0.205 µM (active). For `CCCCSc1nnc(N)[nH]1`, the IC50 in [15] is > 100 µM (not active); in [9], > 100 µM (inactive). As to `CC(C)(C)n1nc2c(c1NC(=O)Cc1cccs1)CSC2`, the EC50 in [8] was > 50 µM (active).

For the compound `Cc1occc1C(=O)N/N=C/C=C/c1ccccc1`, in assay [8], the EC50 was > 50 µM (active).
